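48-hour exposure; five concentrations; linearly interpolated endpoints. TGI: concentration producing complete growth inhibition.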 Bounds are passed on as bounds.

What all share (assay): NCI tumour cell line growth inhibition, 48 h
Test [1] has as its system SN12C renal.
For test [2], the system named is A498 renal.
For test [3], the system named is RPMI-8226 leukemia.
In test [4] the test system is HCT-116 colon.
Test [5] concerns BT-549 breast.
In test [6] the test system is MCF7 breast.
Test [7] concerns SK-OV-3 ovarian.
The test system of test [8] is SF-295 CNS.
In test [9] the test system is IGROV1 ovarian.
The test system of test [10] is LOX IMVI melanoma.

Consider `COC(=O)C1C(C(=O)OC)C2(OC(c3ccc(Cl)cc3)=CC2=O)C12OC(c1ccc(Cl)cc1)=CC2=O` (stereo not given), for which the TGI in [1] worked out at 52.8 µM; in test [2] it was 76.1 µM; in [3], 37.2 µM; in test [4], 30.4 µM; in [5] it was 42.5 µM; in test [6], 64.6 µM. Further, the TGI is over 100 µM in [7], 64.3 µM in test [8], 47.7 µM in test [9] and 57.4 µM in test [10].
With `COc1cc(CC(C)NC(C)=O)cc(OC)c1` (stereo not given), the TGI in test [1], in test [2], in [3], in test [4], in test [5] and in test [6] was over 100 µM in each case. For the same compound, the TGI in [7], in test [8], in [9] and in test [10] was over 100 µM each time.
In the case of `O=S(=O)(c1cc(Cl)ccc1Cl)n1ccnc1`, the TGI was 84.4 µM in test [1]; 95 µM in test [2]; 91.6 µM in test [3]; over 100 µM in test [4]; over 100 µM in [5]; over 100 µM in test [6]. Besides, the TGI in test [7], in test [8], in [9] and in [10] was over 100 µM throughout.
Turning to `CSc1nc(NC(C)C)c2c(n1)Sc1nc3ccccc3n1N=C2`, the TGI in test [1] was 35.4 µM; in [2] it was 12.6 µM; in test [3], over 100 µM; in test [4] it was 21.5 µM; in test [5] it was over 100 µM; in [6], 60 µM. Moreover, the TGI in [7] is 28.2 µM; in test [8], 24.1 µM; in [9], over 100 µM; in [10], over 100 µM.
As for `Nc1nc(Cl)cc(NCC2(O)CC2)n1`, the TGI in [1], in test [2], in test [3], in test [4], in test [5] and in [6] was over 100 µM in each case. In addition, the TGI in [7], in test [8], in test [9] and in test [10] was over 100 µM each time.
Regarding `COc1ccc(C2C3=C(COC3=O)Oc3cc4c(cc32)OCO4)c(OC)c1` (stereo not given), the TGI in test [1], in test [2], in [3], in test [4], in test [5] and in test [6] was over 100 µM each time. The TGI in test [7] is 93.1 µM; in test [8], 29.8 µM; in test [9], over 100 µM; in test [10] it was over 100 µM.
For the compound `Cc1cc(C)c(S(=O)(=O)N(CCCN)OCCCON(CCCN)S(=O)(=O)c2c(C)cc(C)cc2C)c(C)c1`, the TGI was 13.6 µM in test [1]; 10.7 µM in test [2]; 6.55 µM in [3]; 3.17 µM in test [4]; 8.64 µM in test [5]; 3.41 µM in [6]. The TGI was 3.58 µM in [7], 21.4 µM in [8], 3.86 µM in test [9] and 3.11 µM in test [10].
Consider `C=C1C(OC2O[C@@H]3O[C@@]4(C)CC[C@H]5[C@H](C)CC[C@@H](C2=C)[C@@]35O4)O[C@@H]2O[C@@]3(C)CC[C@H]4[C@H](C)CC[C@@H]1[C@@]24O3` (stereo not given in full), for which the TGI in test [1], in test [2], in [3], in test [4], in test [5] and in test [6] was over 50 µM in each case. In addition, the TGI in [7], in test [8], in test [9] and in [10] was over 50 µM throughout.
`O=C1C=CC(=O)c2c(O)c(N3CCC[C@H]3CO)c(Cl)c(O)c21`: the TGI is 3.2 µM in [1]; over 10 µM in [2]; 1.09 µM in [3]; 3.3 µM in [4]; over 10 µM in test [5]; 3.66 µM in test [6]. The TGI in test [7] was over 10 µM; in test [8], over 10 µM; in [9], over 7.96 µM; in [10] it was 4.34 µM.
For the compound `NC(=O)c1csc(C2(O)COC(CO)C2O)n1` (stereo not given), the TGI in [1], in test [2], in [3], in test [4], in test [5] and in test [6] was over 100 µM each time. In addition, the TGI in test [7], in test [8], in [9] and in test [10] was over 100 µM in each case.
For the compound `COC(=O)Cc1ccc2c(cnn2-c2ccccc2)c1OC`, the TGI in [1], in test [2], in test [3], in test [4], in [5] and in test [6] was over 10 µM throughout. The TGI in test [7], in test [8], in test [9] and in [10] was over 10 µM in each case.
With `O=C1NC2CCCCC2N=C1CC(=O)c1ccc(Br)cc1` (stereo not given), the TGI in [1] is over 100 µM; in test [2] it was over 100 µM; in test [3], 7.16 µM; in test [4] it was over 100 µM; in [5], 94.2 µM; in test [6], over 100 µM. Further, the TGI in [7], in test [8], in test [9] and in test [10] was over 100 µM each time.
Turning to `CN(C)CC1CCC/C(=C\c2ccc(OC(=O)c3ccc(Cl)cc3)cc2)C1=O` (stereo not given), the TGI in test [1] amounted to 4.84 µM; in test [2] it was 22.6 µM; in [3], 1.99 µM; in test [4] it was 2.23 µM; in [5], 7.55 µM; in test [6], 1.58 µM. For the same compound, the TGI amounted to 34.6 µM in test [7], 9.84 µM in test [8], 8.27 µM in [9] and 1.98 µM in test [10].
Regarding `O=C(/C=C/C(=O)N1CCCC1)N1CCCC1`, the TGI in test [1], in [2], in test [3], in [4], in test [5] and in [6] was over 100 µM throughout. The TGI in [7], in test [8], in test [9] and in test [10] was over 100 µM in each case.
On to `COc1ccc(/C=c2\s/c(=C3/SC(=S)N(c4ccccc4)C3=O)n(-c3ccccc3)c2=O)cc1`, for which the TGI in [1], in test [2], in test [3], in test [4], in test [5] and in [6] was over 100 µM in each case. For the same compound, the TGI is 45 µM in [7], over 100 µM in [8], 75.9 µM in [9] and over 100 µM in test [10].
In the case of `CCn1c2ccc(C(=O)CCCN3CCCCC3)cc2c2cc(C(=O)CCCN3CCCCC3)ccc21`, the TGI in test [1] worked out at 20 µM; in test [2], 10.3 µM; in test [3], 4.7 µM; in test [4], 10.8 µM; in [5], 35 µM; in test [6], 4.94 µM. For the same compound, the TGI in [7] worked out at 13.4 µM; in test [8], 10.7 µM; in test [9], 8.73 µM; in test [10], 4.47 µM.
`CCC(O)(Cc1ccc(OC)cc1)c1ccc(OC)cc1` (stereo not given): the TGI in test [1], in test [2], in test [3], in test [4], in test [5] and in [6] was over 100 µM each time. Moreover, the TGI in [7], in [8], in [9] and in test [10] was over 100 µM in each case.
For `CCCCSc1nsc(N(C(=O)c2ccccc2)C(=O)c2ccccc2)n1`, the TGI in test [1] was over 100 µM; in test [2] it was 88.8 µM; in test [3], 47.2 µM; in [4], 92.6 µM; in test [5], 92.1 µM; in test [6] it was over 100 µM. Further, the TGI in test [7], in test [8], in test [9] and in test [10] was over 100 µM in each case.
As for `Cc1ccc2c(c1)-c1c(C#N)c(N)nc(-c3ccc(Cl)cc3)c1CCS2(=O)=O`, the TGI in test [1] is over 100 µM; in test [2], over 60.5 µM; in [3], 8.45 µM; in test [4], over 100 µM; in [5], over 100 µM; in test [6], over 100 µM. Also, the TGI in test [7], in test [8], in test [9] and in [10] was over 100 µM each time.
With `O=c1c(Cc2ccc(Cl)cc2)nnc2sc(-c3ccc(-c4ccc(F)c(Cl)c4)o3)nn12`, the TGI in test [1], in [2], in test [3], in test [4], in [5] and in test [6] was over 100 µM each time. The TGI in test [7], in test [8], in test [9] and in test [10] was over 100 µM in each case.
For `COc1ccccc1CN=C1Nc2ccncc2S(=O)(=O)N1c1ccccc1`, the TGI in test [1], in test [2], in test [3], in test [4], in test [5] and in [6] was over 100 µM in each case. Also, the TGI in test [7], in [8], in [9] and in test [10] was over 100 µM each time.

The values are drawn from PubChem BioAssay (NCI).
